Drawing on BindingDB's records for doi:10.7270/Q21V5CBG (NMMLSC, 2007), this text covers Ki for ten compounds.

SMILES strings stand for the structures. Where only a bound is given, the exact number is not on record here.

One may read the Ki as a measure of affinity in units of concentration, obtained from inhibition or displacement. The low end stands for a stronger hold on the target, the high end for a looser hold on the target.

This assay concerns the target T1, fMet-Leu-Phe receptor (Homo sapiens, UniProt P21462).
T1 sequence (P21462 whole entry): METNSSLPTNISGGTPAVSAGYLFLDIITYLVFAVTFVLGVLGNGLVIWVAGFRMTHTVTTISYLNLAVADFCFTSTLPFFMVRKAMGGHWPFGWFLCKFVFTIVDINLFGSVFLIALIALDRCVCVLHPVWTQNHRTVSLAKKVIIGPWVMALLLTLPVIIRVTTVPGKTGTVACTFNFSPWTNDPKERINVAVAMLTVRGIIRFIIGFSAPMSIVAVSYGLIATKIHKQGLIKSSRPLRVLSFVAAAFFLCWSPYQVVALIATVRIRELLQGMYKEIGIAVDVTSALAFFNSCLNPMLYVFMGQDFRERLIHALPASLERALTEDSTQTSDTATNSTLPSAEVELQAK
The assay can be described thus: human FPR1 ligand displacement potency – cell-based, flow cytometry, IC50, selectivity assay for FPRL1 ligand SAR project, dose response (AID 762). (A flow cytometer gives signals particle by particle.)
`O=C(N1CCN(c2nc(-c3ccccc3)c3ccccc3n2)CC1)C(F)(F)F` [2,2,2-trifluoro-1-[4-(4-phenyl-2-quinazolinyl)-1-piperazinyl]ethanone] gave a Ki greater than 37.6 µM. `COc1ccc(-c2cc(C(F)(F)F)nc(N3CCN(C(c4ccccc4)c4ccccc4)CC3)n2)cc1OC` [2-(4-benzhydrylpiperazin-1-yl)-4-(3,4-dimethoxyphenyl)-6-(trifluoromethyl)pyrimidine] registered a Ki greater than 27.2 µM.

In turn, `COc1ccc(-c2cc(C(F)(F)F)nc(N3CCN(Cc4ccccc4)CC3)n2)cc1OC` [2-(4-benzylpiperazin-1-yl)-4-(3,4-dimethoxyphenyl)-6-(trifluoromethyl)pyrimidine] showed a Ki greater than 31.7 µM. As for `COc1ccc(-c2cc(C(F)(F)F)nc(N3CCN(c4ccccc4)CC3)n2)cc1OC` [4-(3,4-dimethoxyphenyl)-2-(4-phenyl-1-piperazinyl)-6-(trifluoromethyl)pyrimidine], the figure is greater than 32.7 µM; as for `CCOC(=O)N1CCN(c2nc(-c3ccc(OC)c(OC)c3)cc(C(F)(F)F)n2)CC1` [4-[4-(3,4-dimethoxyphenyl)-6-(trifluoromethyl)-2-pyrimidinyl]-1-piperazinecarboxylic acid ethyl ester], greater than 33 µM; as for `COc1ccc(-c2cn3cccnc3n2)cc1NC(=O)C1CC1` [MLS000045944], greater than 47.2 µM. As for `COc1ccc(-c2cn3cccnc3n2)cc1NC(=O)C1CCCC1` [MLS000045945], the figure is greater than 43.3 µM; as for `COc1ccc(CC(=O)Nc2cc(-c3cn4cccnc4n3)ccc2OC)cc1` [N-(5-imidazo[1,2-a]pyrimidin-2-yl-2-methoxy-phenyl)-2-(4-methoxyphenyl)acetamide], greater than 37.4 µM; as for `COc1ccc(-c2cn3cccnc3n2)cc1NC(=O)C(C)C` [N-(5-imidazo[1,2-a]pyrimidin-2-yl-2-methoxy-phenyl)-2-methyl-propanamide], greater than 46.9 µM. As for `CCC(=O)Nc1cc(-c2cn3cccnc3n2)ccc1OC` [N-(5-imidazo[1,2-a]pyrimidin-2-yl-2-methoxy-phenyl)propanamide], the figure is greater than 49.1 µM.
